From patent US11965041B2, “N-methylated cyclic peptides and their prodrugs” (TECHNISCHE UNIVERSITAET MUENCHEN, priority 2017, dated 2024)
Numbered stars: 1 amine (or outer) side, 2 acyl side, 3 side chain; on linkers, the order of the positions; unused ones are H or OH. Square brackets hold non-standard residues; d marks the D form. Peptide text beside a SMILES is read from it. X1 = CCCCCCOC(=O)N=C(NCCC[C@@H](N[*:1])C(=O)[*:2])NC(=O)OCCCCCC; NMeV = CN[C@H](C(=O)O)C(C)C; dNMeA = CN[C@H](C)C(=O)O

Experiments:
[1] = system: CYP3A4; assay: Enzymatic inhibition study in isolated rat CYP3A4 microsomes; assay type: in vitro ADME; conditions: rat, pooled rat CYP3A4 microsomes, pH 7.4; with ketoconazole; 60 min; read-out: concentration remaining after incubation, with ketoconazole
[2] = system: rat CYP3A4 microsomes; assay: as above; assay type: in vitro ADME; conditions: 60 min
[3] = Caco-2 permeability study (Examples 1, 2 and 4, Table 3); assay type: in vitro ADME, human; conditions: Caco-2, unit inferred; read-out: Caco-2 A-to-B Papp (converted)
[4] = Metabolic stability in rat plasma; assay type: in vitro ADME; conditions: 37° C., up to 90 minutes
Protocol: The enzymatic reactions were performed as follows: 2 mM stock solutions of the tested compounds were diluted with serum or purified brush border membrane vesicles (BBMVs) solution to a final concentration of 0.5 mM. During incubation at 37° C. samples were taken for a period of 90 minutes. The enzymatic reaction was stopped by adding 1:1 v/v of ice cold acetonitrile and centrifuge (4000 g, 10 min) before analysis. Preparation of BBMVs: The BBMVs was prepared from combined duodenum, jejunum, and upper ileum (male Wistar rats) by a Ca^++ precipitation method. Purification of the BBMVs was assayed using GGT, LAP and alkaline phosphatase as membrane enzyme markers
Peptides 12 and 12p were subjected to rat plasma and followed their degradation. Rat plasma is known to be rich with esterases.

[5] = Pooled Human Liver Microsome assay; assay type: in vitro ADME
Source text: Peptide 12 P was subjected to additional in vitro assay to evaluate the involvement of liver metabolism using the Pooled Human Liver Microsome assay. Liver microsomes are subcellular particles derived from the endoplasmic reticulum of hepatic cells. These microsomes are a rich source of drug metabolizing enzymes, including cytochrome P-450. Microsome pools from various sources are useful in the study of xenobiotic metabolism and drug interactions. […] The presence of ketokonazole inhibits the metabolism by the liver enzymes in some degree. However, Incubating peptide 12P with self-assembling pro-nano lipospheres (PNL), led to much better inhibition of cytochromes P-450.

[6] = Pharmacokinetic study in rats after oral administration; assay type: in vivo, Wistar rats; conditions: rat
Protocol: In Vivo Studies. Male Wistar rats (Harlan, Israel), 275-300 g in weight, were used for all surgical procedures. Animals were anesthetized for the period of surgery by intraperitoneal injection of 1 mL/kg of ketamine/xylazine solution (9:1), placed on a heated surface, and maintained at 37° C. (Harvard Apparatus Inc., Holliston, MA). An indwelling cannula was placed in the right jugular vein of each animal for systemic blood sampling, by a method described before. The cannula was tunneled beneath the skin and exteriorized at the dorsal part of the neck. After completion of the surgical procedure, the animals were transferred to cages to recover overnight (12-18 h). During this recovery period, food but not water was deprived. Throughout the experiment, free access to food was available 4 h post oral administration. Animals were randomly assigned to the different experimental groups. […] Dispersed 12P SNEDDS (5 mg/kg) was administered to the animals by oral gavage (n=3). Systemic blood samples (0.35 mL) were taken at 5 min predose, 20, 40, 60, 90, 180, 240, and 360 min postdose. To prevent dehydration, equal volumes of physiological solution were administered to the rats following each withdrawal of blood sample. Plasma was separated by centrifugation (5322 g, 10 min) and stored at −20° C. pending analysis. In the 12P pharmacokinetic study, the parent peptide, 12, was analytically determined.
Pharmacokinetic Analysis. The area under the plasma concentration-time curve (AUC) was calculated by using the trapezoidal rule with extrapolation to infinity by dividing the last measured concentration by the elimination rate constant (kel). The elimination rate constant values were determined by a linear regression analysis using the last points on the logarithmic plot of the plasma concentration versus the time curve. Pharmacokinetic parameters, such Tmax, Cmax, clearance (CL), volume of distribution (V), and bioavailability, were calculated using noncompartmental analysis.
Analytical Methods. Plasma or BBMV samples were spiked with metoprolol (1.5 μg/mL) as an internal standard. ACN was added to each sample (2:1) and vortex-mixed for 1 min. The samples were then centrifuged (14 635 g, 10 min), and the supernatant was transferred to fresh glass tubes and evaporated to dryness (Vacuum Evaporation System, Labconco, Kansas City, MO, USA). Then, the glass tubes were reconstituted in 80 μL of mobile phase and centrifuged a second time (14 635 g, 10 min). The amount of the compounds was determined using an HPLC-MS Waters 2695 Separation Module, equipped with a Micromass ZQ detector. The resulting solution was injected (10 μL) into the HPLC system. The system was conditioned as follows: for parent drug peptides (including 12), a Kinetex 2.6 μm HILIC 100 Å, 100 mm×2.1 mm column (Phenomenex, Torrance, CA, USA), an isocratic mobile phase, and an acetonitrile:water:ammonium acetate buffer 50 mM (70:10:20, v/v/v) was used; and for the prodrug peptides (including 12P), a Luna (Phenomenex) 3 μm C8 100 Å, 100 mm×2.0 mm column and an isocratic mobile phase of ACN:water supplemented with 0.1% formic acid (70:30, v/v) and a flow rate of 0.2 mL/min at 25° C. was used. The limit of quantification for all of the peptides and prodrugs was 25 ng/mL.
The pharmacokinetic in-vivo study allows a further evaluation of the prodrug concept in the whole animal. The PK studies were performed in conscious Wistar male rats. An indwelling cannula was implanted in the jugular vein 24 hours before the PK experiment to allow full recovery of the animals from the surgical procedure. Animals (n=4) received either an IV bolus dose or oral dose of the investigated compound. Blood samples (with heparin, 15 U/ml) were collected at several time points for up to 6 hours post administration and was assayed by HPLC-MS method. Non-compartmental pharmacokinetic analysis was performed using WinNonlin software.

[7] = system: Caco-2 cells
[8] = in vivo; cited from earlier work
[9] = physchem; conditions: pH 7.4, LogD, pH 7.4, reported value (mean or bound)
[10] = oral 5 mg/kg, peptide 12 measured in plasma, 12P given as dispersed 12P SNEDDS

remaining at 1 h, 1 µM [1] [%]	concentration remaining after incubation, alone ([2]; 12P alone) [%]	concentration remaining after incubation, with SNEDDS ([2]; dispersed 12P SNEDDS) [%]	Papp A→B [3] [×10⁻⁶ cm/s]	metabolic stability in rat plasma, in words [4]	relative bioavailability vs peptide 12 ([6]; after oral administration)	AUC [6, 10] [µg·min/mL]	Cmax [6, 10] [ng/mL]	F [6, 10] [%]	Kel [6, 10] [min⁻¹]	Tmax, Median (range) [6, 10]	permeability in the PAMPA-GIT model system	Papp (AB), replicate 1 [7]	logD at 1 h [9]	SMILES	metabolism by Pooled Human Liver Microsomes, in words [5]	half live in man [8] [h]
67 ± 3.61	14.0±4.06	102.2±19.7	0.785	degraded	about 70 fold	216.9 ± 75.6	1993 ± 967	43.8 ± 14.9	0.009 ± 0.0001	20 (20-60) min				CCCCCCOC(=O)N=C(NCCC[C@@H]1NC(=O)[C@@H](C)N(C)C(=O)[C@H](C)N(C)C(=O)[C@H](C)NC(=O)[C@H](CC(=O)OC)NC(=O)CNC1=O)NC(=O)OCCCCCC [Peptide 12P, c(*aR(Hoc)2GD(OMe)A*A)]	substrate for P-gp efflux system and cytochromes P-450	
											> -5	0.1 10^−6 cm/s		CCCCCCOC(=O)N=C(NCCC[C@H]1NC(=O)[C@H](C(C)C)N(C)C(=O)[C@@H](C)N(C)C(=O)[C@@H](C)NC(=O)[C@@H](CC(=O)OC)NC(=O)CNC1=O)NC(=O)OCCCCCC [#29P*] (cyclo(G[dD](OMe)[dA][dNMeA][NMeV][X1]))		
											low permeability		< -1	CC(C)[C@H]1C(=O)N[C@@H](CCCN=C(N)N)C(=O)NCC(=O)N[C@@H](CC(=O)O)C(=O)N[C@H](Cc2ccccc2)C(=O)N1C [Cilengitide, cyclo(RGDf-(NMe)V)]		4
